Data reported in ChEMBL document CHEMBL3352662, “Flow synthesis and biological activity of aryl sulfonamides as selective carbonic anhydrase IX and XII inhibitors” (Bioorg Med Chem Lett, 2014).

Tests used:
[1] = target: T1, Carbonic anhydrase 1 (Homo sapiens, UniProt P00915); experiment: Inhibition of CA-1 (unknown origin) at 10 uM after 15 mins by CO2 hydration assay
Target sequence in this assay (P00915 2-261 limits assumed): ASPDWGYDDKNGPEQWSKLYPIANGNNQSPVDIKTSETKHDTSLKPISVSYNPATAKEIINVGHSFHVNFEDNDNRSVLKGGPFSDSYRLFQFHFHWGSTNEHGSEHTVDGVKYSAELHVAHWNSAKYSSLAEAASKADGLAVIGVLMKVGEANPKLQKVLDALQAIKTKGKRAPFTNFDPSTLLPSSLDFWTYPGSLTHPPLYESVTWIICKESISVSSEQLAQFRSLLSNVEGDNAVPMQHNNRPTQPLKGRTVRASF

[2] = target: T2, Carbonic anhydrase 2 (Homo sapiens, UniProt P00918); experiment: Inhibition of CA-2 (unknown origin) after 15 mins by CO2 hydration assay
[3] = target: Carbonic anhydrase 9 (Homo sapiens, UniProt Q16790); experiment: Inhibition of CA-9 (unknown origin) after 15 mins by CO2 hydration assay
[4] = target: T1, Carbonic anhydrase 1; experiment: Inhibition of CA-1 (unknown origin) after 15 mins by CO2 hydration assay
Target sequence in this assay (P00915 whole entry): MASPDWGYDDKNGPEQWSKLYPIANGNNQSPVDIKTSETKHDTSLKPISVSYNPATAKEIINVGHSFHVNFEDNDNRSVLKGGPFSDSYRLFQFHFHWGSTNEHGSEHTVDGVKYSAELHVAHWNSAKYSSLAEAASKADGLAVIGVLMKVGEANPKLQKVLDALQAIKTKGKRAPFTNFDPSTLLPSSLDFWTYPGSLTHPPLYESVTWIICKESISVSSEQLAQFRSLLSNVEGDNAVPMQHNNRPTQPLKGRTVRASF

[5] = target: T2, Carbonic anhydrase 2; experiment: Inhibition of CA-2 (unknown origin) at 10 uM after 15 mins by CO2 hydration assay
[6] = target: Carbonic anhydrase 12 (Homo sapiens, UniProt O43570); experiment: Inhibition of CA-12 (unknown origin) after 15 mins by CO2 hydration assay
Carbonic anhydrase 12, sequence (O43570 whole entry): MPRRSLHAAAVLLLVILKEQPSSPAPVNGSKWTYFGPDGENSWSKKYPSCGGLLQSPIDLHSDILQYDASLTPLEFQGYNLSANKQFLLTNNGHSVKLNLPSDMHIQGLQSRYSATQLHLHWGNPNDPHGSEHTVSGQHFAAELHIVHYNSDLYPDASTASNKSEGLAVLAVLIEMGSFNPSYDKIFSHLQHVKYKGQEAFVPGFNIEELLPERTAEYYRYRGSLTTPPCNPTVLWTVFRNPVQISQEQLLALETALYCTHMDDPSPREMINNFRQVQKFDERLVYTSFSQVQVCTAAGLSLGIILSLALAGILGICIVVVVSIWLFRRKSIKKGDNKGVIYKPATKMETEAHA

Compound | inhibition [1] [%] | IC50 [2] [µM] | IC50 [3] [µM] | IC50 [4] [µM] | inhibition [5] [%] | IC50 [6] [µM]
Cc1ccc(S(=O)(=O)NCC(=O)O)cc1 | 39 | 3.62 | 0.217 | > 50 |  | 
Cc1ccc(S(=O)(=O)N(C)c2ccccc2)cc1 | 39 | > 50 | 0.093 | > 50 | 45 | 0.266
CCCC(C)NS(=O)(=O)c1ccc(C)cc1 (centres undefined) | 40 | 8.07 | 0.07 | > 50 |  | 
Cc1ccc(S(=O)(=O)NCCCN(C)C)cc1 | 39 | 6.67 | 0.094 | > 50 |  | 

Next, values leading:

inhibition [1] [%] | IC50 [2] [µM] | IC50 [3] [µM] | IC50 [4] [µM] | inhibition [5] [%] | IC50 [6] [µM] | Compound
34 | > 50 | 0.076 | > 50 | 44 | 4.28 | Cc1ccc(S(=O)(=O)NCc2ccccc2)cc1
36 | > 50 | 0.074 | > 50 | 47 |  | CC(=O)c1ccc(S(=O)(=O)Nc2ccccc2)cc1
35 | > 50 | 0.09 | > 50 | 45 |  | Cc1ccc(S(=O)(=O)Nc2ccccc2)cc1
39 | 7.32 | 0.128 | > 50 |  |  | O=[N+]([O-])c1ccc(S(=O)(=O)Nc2ccccc2)cc1
38 | 5.1 | 0.09 | > 50 |  | 0.226 | Cc1ccc(S(=O)(=O)Nc2ccccc2-c2ccccc2)cc1
39 | > 50 | 0.079 | > 50 | 45 | 0.179 | COc1ccc(S(=O)(=O)Nc2ccccc2)cc1OC
